Reference: US20230085307A1, “PYRIDAZINONE COMPOUND AND HERBICIDE” (NISSAN CHEMICAL CORPORATION, priority 2019, published 2023)

What was measured:
[1] = test system: redroot pigweed; test: Test Example 4: herbicidal effect by soil treatment (Table 19, symbol N); type: in vivo, redroot pigweed (Amaranthus retroflexus); conditions: amount of applied herbicide 320 g/ha
Procedure, shortened: (§1)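 In this soil treatment, the formulated compound reached the seeds only through the soil: seeds were buried about 1.5 cm deep in sterilized diluvial soil, then the diluted emulsion was sprayed over the surface. After three weeks at 25° C. to 30° C. in a greenhouse, effects were graded on criteria from an earlier test.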

[2] = test system: barnyard grass; test: Test Example 5: herbicidal effect by foliage application, plastic box (Table 20, symbol H); type: in vivo, barnyard grass (Echinochloa crus-galli); conditions: foliage application, AAH 320 g/ha, evaluated three weeks after application
Procedure, shortened: (§2)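 Plants were sown into sterilized diluvial soil under about 1.5 cm cover and kept in a greenhouse at 25° C. to 30° C. Fourteen days on, foliage received an even spray of the diluted emulsion. Herbicidal or crop effect was judged three weeks afterwards.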

[3] = test system: lambsquarters; test: Test Example 5: herbicidal effect by foliage application, plastic box (Table 20, symbol O); type: in vivo, lambsquarters (Chenopodium album); conditions: foliage application, AAH 320 g/ha, evaluated three weeks after application
Procedure, shortened: as §2

[4] = test system: green foxtail; test: Test Example 4: herbicidal effect by soil treatment (Table 19, symbol G); type: in vivo, green foxtail (Setaria viridis); conditions: amount of applied herbicide 320 g/ha
Procedure, shortened: as §1

[5] = test system: chickweed; test: Test Example 4: herbicidal effect by soil treatment (Table 19, symbol P); type: in vivo, common chickweed (Stellaria media); conditions: amount of applied herbicide 320 g/ha
Procedure, shortened: as §1

[6] = test system: Italian ryegrass; test: Test Example 5: herbicidal effect by foliage application, plastic box (Table 20, symbol K); type: in vivo, Italian ryegrass (Lolium multiflorum); conditions: foliage application, AAH 320 g/ha, evaluated three weeks after application
Procedure, shortened: as §2

[7] = test system: blackgrass; test: Test Example 4: herbicidal effect by soil treatment (Table 19, symbol J); type: in vivo, blackgrass (Alopecurus myosuroides); conditions: amount of applied herbicide 320 g/ha
Procedure, shortened: as §1

[8] = test system: Italian ryegrass; test: Test Example 4: herbicidal effect by soil treatment (Table 19, symbol K); type: in vivo, Italian ryegrass (Lolium multiflorum); conditions: amount of applied herbicide 320 g/ha
Procedure, shortened: as §1

[9] = test system: late watergrass; test: Test Example 1: herbicidal activity, application before weed generation under submerged conditions (Table 16, symbol A); type: in vivo, late watergrass (Echinochloa oryzicola); conditions: 320 g/ha applied herbicide
Procedure, shortened: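 Emulsion formulation, water-diluted to set dose, was put onto the flooded surface (4 cm depth, alluvial soil) the same day weeds were sown and 2.5-leaf rice transplanted. After 3 weeks at 25-30 °C under glass, each species was rated 0 (≤5% kill) to 5 (≥90% kill).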

[10] = test system: redroot pigweed; test: Test Example 5: herbicidal effect by foliage application, plastic box (Table 20, symbol N); type: in vivo, redroot pigweed (Amaranthus retroflexus); conditions: foliage application, AAH 320 g/ha, evaluated three weeks after application
Procedure, shortened: as §2

[11] = test system: southern crabgrass; test: Test Example 4: herbicidal effect by soil treatment (Table 19, symbol F); type: in vivo, southern crabgrass (Digitaria ciliaris); conditions: amount of applied herbicide 320 g/ha
Procedure, shortened: as §1

[12] = test system: Japanese bulrush; test: Test Example 2: herbicidal activity, application during weed generation under submerged conditions (Table 17, symbol B); type: in vivo, Japanese bulrush (Schoenoplectus juncoides); conditions: AAH 320 g/ha; application during weed generation, submerged conditions
Procedure, shortened: (§3)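 Effect on each weed is rated three weeks post-treatment, using the same scoring criteria as the preceding test. Plants grow from mixed-sown seed in flooded alluvial soil (4 cm water) at 25° C. to 30° C., and are treated at one to two leaves with diluted emulsion dropped onto the water.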

[13] = test system: persian speedwell; test: Test Example 4: herbicidal effect by soil treatment (Table 19, symbol R); type: in vivo, Persian speedwell (Veronica persica); conditions: amount of applied herbicide 320 g/ha
Procedure, shortened: as §1

[14] = test system: persian speedwell; test: Test Example 5: herbicidal effect by foliage application, plastic box (Table 20, symbol R); type: in vivo, Persian speedwell (Veronica persica); conditions: foliage application, AAH 320 g/ha, evaluated three weeks after application
Procedure, shortened: as §2

[15] = test system: oval-leafed pondweed; test: Test Example 2: herbicidal activity, application during weed generation under submerged conditions (Table 17, symbol C); type: in vivo, oval-leafed pondweed (Monochoria vaginalis); conditions: AAH 320 g/ha; application during weed generation, submerged conditions
Procedure, shortened: as §3

[16] = test system: southern crabgrass; test: Test Example 5: herbicidal effect by foliage application, plastic box (Table 20, symbol F); type: in vivo, southern crabgrass (Digitaria ciliaris); conditions: foliage application, AAH 320 g/ha, evaluated three weeks after application
Procedure, shortened: as §2

Structure (SMILES) | herbicidal effect on N: redroot pigweed [1] | H: barnyard grass, herbicidal effect (criteria 0-5) [2] | O: lambsquarters, herbicidal effect (criteria 0-5) [3] | herbicidal effect on G: green foxtail [4] | herbicidal effect on P: chickweed [5] | K: Italian ryegrass, herbicidal effect (criteria 0-5) [6] | herbicidal effect on J: blackgrass [7] | herbicidal effect on K: Italian ryegrass [8] | Herbicidal effect on A: late watergrass (grade 0-5) [9] | N: redroot pigweed, herbicidal effect (criteria 0-5) [10] | herbicidal effect on F: southern crabgrass [11] | herbicidal effect rating, B: Japanese bulrush [12] | herbicidal effect on R: persian speedwell [13] | R: persian speedwell, herbicidal effect (criteria 0-5) [14] | herbicidal effect rating, C: oval-leafed pondweed [15] | F: southern crabgrass, herbicidal effect (criteria 0-5) [16]
Cc1nn(C)c(=O)c(-c2c(-c3ccc(OC(F)F)cc3)sc3ccc(F)cc23)c1OC(=O)C1CCCO1 (centres unmarked) [2-289] | 5 (Herbicidal rate of 90% or more (almost completely withered)) | 5 (Herbicidal rate of 90% or more (almost completely withered)) | 5 (Herbicidal rate of 90% or more (almost completely withered)) | 5 (Herbicidal rate of 90% or more (almost completely withered)) | 5 (Herbicidal rate of 90% or more (almost completely withered)) | 5 (Herbicidal rate of 90% or more (almost completely withered)) | 5 (Herbicidal rate of 90% or more (almost completely withered)) | 5 (Herbicidal rate of 90% or more (almost completely withered)) | 4 (Herbicidal rate of 70% or more and less than 90%) | 5 (Herbicidal rate of 90% or more (almost completely withered)) | 5 (Herbicidal rate of 90% or more (almost completely withered)) | 3 (Herbicidal rate of 40% or more and less than 70%) | 5 (Herbicidal rate of 90% or more (almost completely withered)) | 5 (Herbicidal rate of 90% or more (almost completely withered)) | 4 (Herbicidal rate of 70% or more and less than 90%) | 3 (Herbicidal rate of 40% or more and less than 70%)
CCOC(=O)Oc1c(C)nn(C)c(=O)c1-c1c(-c2ccc(OC(F)F)cc2)sc2ccc(F)cc12 [2-292] | 5 (Herbicidal rate of 90% or more (almost completely withered)) | 5 (Herbicidal rate of 90% or more (almost completely withered)) | 5 (Herbicidal rate of 90% or more (almost completely withered)) | 5 (Herbicidal rate of 90% or more (almost completely withered)) | 4 (Herbicidal rate of 70% or more and less than 90%) | 5 (Herbicidal rate of 90% or more (almost completely withered)) | 3 (Herbicidal rate of 40% or more and less than 70%) | 5 (Herbicidal rate of 90% or more (almost completely withered)) | 5 (Herbicidal rate of 90% or more (almost completely withered)) | 5 (Herbicidal rate of 90% or more (almost completely withered)) | 3 (Herbicidal rate of 40% or more and less than 70%) | 5 (Herbicidal rate of 90% or more (almost completely withered)) | 5 (Herbicidal rate of 90% or more (almost completely withered)) | 5 (Herbicidal rate of 90% or more (almost completely withered)) | 5 (Herbicidal rate of 90% or more (almost completely withered)) | 5 (Herbicidal rate of 90% or more (almost completely withered))
Cc1nn(C)c(=O)c(-c2c(-c3ccc(OC(F)F)cc3)sc3ccc(F)cc23)c1OC(=O)OCCCl [2-293] | 5 (Herbicidal rate of 90% or more (almost completely withered)) | 5 (Herbicidal rate of 90% or more (almost completely withered)) | 5 (Herbicidal rate of 90% or more (almost completely withered)) | 5 (Herbicidal rate of 90% or more (almost completely withered)) | 4 (Herbicidal rate of 70% or more and less than 90%) | 5 (Herbicidal rate of 90% or more (almost completely withered)) | 5 (Herbicidal rate of 90% or more (almost completely withered)) | 5 (Herbicidal rate of 90% or more (almost completely withered)) | 5 (Herbicidal rate of 90% or more (almost completely withered)) | 5 (Herbicidal rate of 90% or more (almost completely withered)) | 4 (Herbicidal rate of 70% or more and less than 90%) | 3 (Herbicidal rate of 40% or more and less than 70%) | 5 (Herbicidal rate of 90% or more (almost completely withered)) | 5 (Herbicidal rate of 90% or more (almost completely withered)) | 4 (Herbicidal rate of 70% or more and less than 90%) | 5 (Herbicidal rate of 90% or more (almost completely withered))
Cc1nn(C)c(=O)c(-c2c(-c3ccc(OC(F)F)cc3)sc3ccc(F)cc23)c1OC(=S)Sc1ccccc1 [2-298] | 3 (Herbicidal rate of 40% or more and less than 70%) | 5 (Herbicidal rate of 90% or more (almost completely withered)) | 5 (Herbicidal rate of 90% or more (almost completely withered)) | 0 (Herbicidal rate of 5% or less (almost no effect)) | 0 (Herbicidal rate of 5% or less (almost no effect)) | 5 (Herbicidal rate of 90% or more (almost completely withered)) | 0 (Herbicidal rate of 5% or less (almost no effect)) | 0 (Herbicidal rate of 5% or less (almost no effect)) | 3 (Herbicidal rate of 40% or more and less than 70%) | 5 (Herbicidal rate of 90% or more (almost completely withered)) | 0 (Herbicidal rate of 5% or less (almost no effect)) | 3 (Herbicidal rate of 40% or more and less than 70%) | 1 (Herbicidal rate of 5% or more and less than 20%) | 5 (Herbicidal rate of 90% or more (almost completely withered)) | 0 (Herbicidal rate of 5% or less (almost no effect)) | 3 (Herbicidal rate of 40% or more and less than 70%)
Cc1nn(C)c(=O)c(-c2c(-c3ccc(OC(F)F)cc3)sc3ccc(F)cc23)c1OCC(=O)c1ccccc1 [2-305] | 4 (Herbicidal rate of 70% or more and less than 90%) | 5 (Herbicidal rate of 90% or more (almost completely withered)) | 5 (Herbicidal rate of 90% or more (almost completely withered)) | 0 (Herbicidal rate of 5% or less (almost no effect)) | 1 (Herbicidal rate of 5% or more and less than 20%) | 4 (Herbicidal rate of 70% or more and less than 90%) | 0 (Herbicidal rate of 5% or less (almost no effect)) | 0 (Herbicidal rate of 5% or less (almost no effect)) | 3 (Herbicidal rate of 40% or more and less than 70%) | 5 (Herbicidal rate of 90% or more (almost completely withered)) | 0 (Herbicidal rate of 5% or less (almost no effect)) | 3 (Herbicidal rate of 40% or more and less than 70%) | 3 (Herbicidal rate of 40% or more and less than 70%) | 5 (Herbicidal rate of 90% or more (almost completely withered)) | 0 (Herbicidal rate of 5% or less (almost no effect)) | 1 (Herbicidal rate of 5% or more and less than 20%)
